Reference: PubChem BioAssay AID1963852 (Molecular Pharmacology Branch, DTP, NCI, 2024)

Tested on: 282377-053-R-J1-PDC complex spheroid viability
Test: Anticancer human tumor 282377-053-R-J1-PDC patient-derived colon adenocarcinoma cell line growth inhibition [POLQ]
Conditions: for IC50: curve of first compound; for viability, T/C: stronger effect = lower value
In short: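 Growth inhibition in 3D: complex spheroids (tumor PDC, HUVEC, MSC) treated with POLQ inhibitor combinations; where Cmax unknown, highest tested concentration 10 microM, except SN-38 at 1 microM.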

[1] = second compound 0.0316 µM, first compound 0.0316 µM
[2] = second compound 0.0316 µM, first compound 0.1 µM
[3] = second compound 0.0316 µM, first compound 0.316 µM
[4] = second compound 0.0316 µM, first compound 1 µM
[5] = second compound 0.0316 µM, first compound 3.16 µM
[6] = second compound 0.0316 µM, first compound 10 µM
[7] = second compound 0.1 µM, first compound 0.0316 µM
[8] = second compound 0.1 µM, first compound 0.1 µM
[9] = second compound 0.1 µM, first compound 0.316 µM
[10] = second compound 0.1 µM, first compound 1 µM
[11] = second compound 0.1 µM, first compound 3.16 µM
[12] = second compound 0.1 µM, first compound 10 µM
[13] = second compound 0.316 µM, first compound 0.0316 µM
[14] = second compound 0.316 µM, first compound 0.1 µM
[15] = second compound 0.316 µM, first compound 0.316 µM
[16] = second compound 0.316 µM, first compound 1 µM
[17] = second compound 0.316 µM, first compound 3.16 µM
[18] = second compound 0.316 µM, first compound 10 µM
[19] = second compound 1 µM, first compound 0.0316 µM
[20] = second compound 1 µM, first compound 0.1 µM
[21] = second compound 1 µM, first compound 0.316 µM
[22] = second compound 1 µM, first compound 1 µM
[23] = second compound 1 µM, first compound 3.16 µM
[24] = second compound 1 µM, first compound 10 µM
[25] = second compound 3.16 µM, first compound 0.0316 µM
[26] = second compound 3.16 µM, first compound 0.1 µM
[27] = second compound 3.16 µM, first compound 0.316 µM
[28] = second compound 3.16 µM, first compound 1 µM
[29] = second compound 3.16 µM, first compound 3.16 µM
[30] = second compound 3.16 µM, first compound 10 µM
[31] = second compound 10 µM, first compound 0.0316 µM
[32] = second compound 10 µM, first compound 0.1 µM
[33] = second compound 10 µM, first compound 0.316 µM
[34] = second compound 10 µM, first compound 1 µM
[35] = second compound 10 µM, first compound 3.16 µM
[36] = second compound 10 µM, first compound 10 µM
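Further: spheroids exposed to compounds for seven days.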
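Wherever viability, T/C is given: 100% = DMSO vehicle control viability.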

## CCc1cc2c(N3CCc4c(cc(Cn5ccnc5)cc4-c4cn(C)nc4C(F)(F)F)C3=O)cc(C)nc2c(OC)n1 + Nc1ccc(C#CCN(C(=O)Cc2ncc(C(F)(F)F)cc2C(F)(F)F)c2ccc(F)cc2)nn1
Second compound 0.0316 µM
  IC50: > 10 µM
Second compound 0.1 µM
  IC50: > 10 µM
Second compound 0.316 µM
  IC50: > 10 µM
Second compound 1 µM
  IC50: > 10 µM
Second compound 3.16 µM
  IC50: > 10 µM
Second compound 10 µM
  IC50: > 10 µM
[1]
  viability, T/C: 83%
[2]
  viability, T/C: 81.5%
[3]
  viability, T/C: 89%
[4]
  viability, T/C: 98.2%
[5]
  viability, T/C: 120%
[6]
  viability, T/C: 99.3%
[7]
  viability, T/C: 84.8%
[8]
  viability, T/C: 82.8%
[9]
  viability, T/C: 82.3%
[10]
  viability, T/C: 75.1%
[11]
  viability, T/C: 93.4%
[12]
  viability, T/C: 115%
[13]
  viability, T/C: 96.6%
[14]
  viability, T/C: 86.2%
[15]
  viability, T/C: 89.4%
[16]
  viability, T/C: 82.3%
[17]
  viability, T/C: 95.9%
[18]
  viability, T/C: 96.1%
[19]
  viability, T/C: 82.1%
[20]
  viability, T/C: 88.7%
[21]
  viability, T/C: 79.8%
[22]
  viability, T/C: 96%
[23]
  viability, T/C: 96.7%
[24]
  viability, T/C: 107%
[25]
  viability, T/C: 95.6%
[26]
  viability, T/C: 91.3%
[27]
  viability, T/C: 85%
[28]
  viability, T/C: 106%
[29]
  viability, T/C: 90.5%
[30]
  viability, T/C: 108%
[31]
  viability, T/C: 108%
[32]
  viability, T/C: 102%
[33]
  viability, T/C: 125%
[34]
  viability, T/C: 107%
[35]
  viability, T/C: 113%
[36]
  viability, T/C: 115%

## COc1cc2cc(C(=O)CCC(=O)O)sc2cc1OC + Nc1ccc(C#CCN(C(=O)Cc2ncc(C(F)(F)F)cc2C(F)(F)F)c2ccc(F)cc2)nn1
Second compound 0.0316 µM
  IC50: > 10 µM
Second compound 0.1 µM
  IC50: > 10 µM
Second compound 0.316 µM
  IC50: > 10 µM
Second compound 1 µM
  IC50: > 10 µM
Second compound 3.16 µM
  IC50: > 10 µM
Second compound 10 µM
  IC50: > 10 µM
[1]
  viability, T/C: 92.5%
[2]
  viability, T/C: 94.8%
[3]
  viability, T/C: 115%
[4]
  viability, T/C: 102%
[5]
  viability, T/C: 92.2%
[6]
  viability, T/C: 95.2%
[7]
  viability, T/C: 112%
[8]
  viability, T/C: 105%
[9]
  viability, T/C: 81.5%
[10]
  viability, T/C: 102%
[11]
  viability, T/C: 94.5%
[12]
  viability, T/C: 125%
[13]
  viability, T/C: 103%
[14]
  viability, T/C: 95.3%
[15]
  viability, T/C: 89.9%
[16]
  viability, T/C: 87.3%
[17]
  viability, T/C: 102%
[18]
  viability, T/C: 79.9%
[19]
  viability, T/C: 103%
[20]
  viability, T/C: 84.5%
[21]
  viability, T/C: 94%
[22]
  viability, T/C: 104%
[23]
  viability, T/C: 107%
[24]
  viability, T/C: 97.3%
[25]
  viability, T/C: 109%
[26]
  viability, T/C: 112%
[27]
  viability, T/C: 103%
[28]
  viability, T/C: 112%
[29]
  viability, T/C: 100%
[30]
  viability, T/C: 90.1%
[31]
  viability, T/C: 126%
[32]
  viability, T/C: 116%
[33]
  viability, T/C: 123%
[34]
  viability, T/C: 107%
[35]
  viability, T/C: 117%
[36]
  viability, T/C: 104%

## O=C(Nc1ccc(O)c(NS(=O)(=O)c2ccc(F)cc2)c1)c1ccc(-c2ccccc2)cc1 + Nc1ccc(C#CCN(C(=O)Cc2ncc(C(F)(F)F)cc2C(F)(F)F)c2ccc(F)cc2)nn1
Second compound 0.0316 µM
  IC50: > 10 µM
Second compound 0.1 µM
  IC50: > 10 µM
Second compound 0.316 µM
  IC50: > 10 µM
Second compound 1 µM
  IC50: > 10 µM
Second compound 3.16 µM
  IC50: > 10 µM
Second compound 10 µM
  IC50: > 10 µM
[1]
  viability, T/C: 92.8%
[2]
  viability, T/C: 115%
[3]
  viability, T/C: 98.1%
[4]
  viability, T/C: 102%
[5]
  viability, T/C: 97.9%
[6]
  viability, T/C: 107%
[7]
  viability, T/C: 93.1%
[8]
  viability, T/C: 107%
[9]
  viability, T/C: 100%
[10]
  viability, T/C: 97.2%
[11]
  viability, T/C: 104%
[12]
  viability, T/C: 103%
[13]
  viability, T/C: 96.9%
[14]
  viability, T/C: 101%
[15]
  viability, T/C: 112%
[16]
  viability, T/C: 95.4%
[17]
  viability, T/C: 100%
[18]
  viability, T/C: 99.8%
[19]
  viability, T/C: 96.5%
[20]
  viability, T/C: 95.5%
[21]
  viability, T/C: 98.7%
[22]
  viability, T/C: 109%
[23]
  viability, T/C: 87.1%
[24]
  viability, T/C: 100%
[25]
  viability, T/C: 113%
[26]
  viability, T/C: 113%
[27]
  viability, T/C: 103%
[28]
  viability, T/C: 100%
[29]
  viability, T/C: 109%
[30]
  viability, T/C: 117%
[31]
  viability, T/C: 124%
[32]
  viability, T/C: 108%
[33]
  viability, T/C: 109%
[34]
  viability, T/C: 133%
[35]
  viability, T/C: 110%
[36]
  viability, T/C: 139%
